The values below are quoted from earlier work in patent publication US20070028401A1, “Powdered preparations containing a mixture of 2,4,6-trianilino-p-(carbo-2'-ethylhexyl-1'-oxi)-1,3,5-triazine and diethylamino-hydroxybenzoyl-hexyl-benzoate” (BASF Aktiengesellschaft, priority 2003, published 2007).

Read-outs that look alike come from different tables or passages of the source.

For the molecule `CCCCC(CC)COC(=O)c1ccc(Nc2nc(Nc3ccc(C(=O)OCC(CC)CCCC)cc3)nc(Nc3ccc(C(=O)OCC(CC)CCCC)cc3)n2)cc1` (centres unmarked) [Uvinul T150, 2,4,6-Trianilino-p-(carbo-2′-ethylhexyl-1′-oxy)-1,3,5-triazine], for the setting “at 314 nm”, the absorbance coefficient is reported as above 1500. `CCCCCCOC(=O)c1ccccc1C(=O)c1ccc(N(CC)CC)cc1O` [Uvinul® A Plus, Diethylamino hydroxybenzoyl hexyl benzoate]: the absorbance coefficient (at 354 nm) is recorded as 940.
